Results: patent US20050085457A1, “Therapeutic quinolone compounds with 5-ht-antagonistic properties” (priority 2001, published 2005)

Test system: Hartley guinea pigs
Experiment: learned helplessness test in guinea pigs
Format: in vivo
Conditions: guinea pig
Text: The utility of the compounds for example to treat depression may be shown via a learned helplessness test in guinea pigs, which is used extensively as correlative to antidepressant activity in humans. The learned helplessness test may be carried out as follows: Seventy male Hartley guinea pigs, each weighing about 350-425 gm are fed ad lib, and are housed under a 12-hour light/dark cycle. The procedure consists of two phases: The induction phase and the avoidance-training phase. In the induction phase, subjects are placed into standard shuttle cages (20 L×16 W×21 centimeters H) which are fitted with a grid floor. Electrical stimulation (1.25 mA, 10 sec duration) is delivered to the floor of the cage every 90-sec during 1 hour daily sessions. Subjects have no opportunity to escape or to avoid shocks. Induction is conducted for 2 consecutive days.
In avoidance training, testing is also conducted in the shuttle cages, except that the subjects are not returned to the same chamber in which induction had occurred. Additionally, all cages are fitted with a partition with an arch in the center of the cage, through which animals can pass between the left and right halves of the cage. The procedure employed is a standard shuttle avoidance procedure in which a compound, conditioned stimulus (a 10-sec presentation of a tone and turning on of a lamp on the side of the cage that the guinea pig was occupying) serves to indicate presentation of electrical current to the floor of the cage. Shock is presented for a 5 sec period, 5 sec after initiation of the conditioned stimulus. Entry into the opposite side of the shuttle cage via the arched partition prior to shock onset results in the end of the trial (avoidance response). If shock is delivered, entry into the opposite side of the cage results in termination of the shock and CS (escape). Reversal of learned helplessness in the induction subjects correlates to antidepressant activity of the test compound.
Avoidance training, 45-min in duration, is conducted on 2 consecutive days, beginning 48 hr after the final induction session. Seventy subjects are assigned to 1 of 6 groups of 11-12 animals. The groups are as follows: • 1) No induction group. The subjects are placed into the shuttle cages but are not given inescapable shock, the animals are subsequently trained in the avoidance procedure and the vehicle is administered; • 2) Induction vehicle control group; • 3) Imipramine 17.8 mg/kg; • 4) 0.3 mg/kg compounds; • 5) 1 mg/kg compounds; and • 6) 5 mg/kg compounds.
Groups 2-6 are given induction and avoidance training sessions. Injections are administered immediately following induction sessions and 1 hour prior to avoidance training sessions. […]

Compound	activity in the learned helplessness assay for antidepressant/antianxiety activity
COc1cc(N2CCN(C)CC2)c2oc(C(=O)Nc3ccc(N4CCOCC4)cc3)cc(=O)c2c1 [Example 31, 6-Methoxy-8-(4-methyl-piperazin-1-yl)-4-oxo-4H-chromene-2-carboxylic acid (4-morpholin-4-yl-phenyl)-amide]	demonstrate activity
CCC(=O)N1CCN(c2ccc(NC(=O)c3cc(=O)c4cc(OC)cc(N5CCN(C)CC5)c4o3)cc2)CC1 [Example 44, 6-Methoxy-8-(4-methyl-piperazin-1-yl)-4-oxo-4H-chromene-2-carboxylic Acid [4-(4-propionyl-piperazin-1-yl)-phenyl]-amide]	demonstrate activity
CCS(=O)(=O)N1CCN(c2ccc(NC(=O)c3cc(=O)c4cc(F)cc(N5CCN(C)CC5)c4o3)cc2)CC1 [Example 71, 6-Fluoro-8-(4-methyl-piperazin-1-yl)-4-oxo-4H-chromene-2-carboxylic Acid [4-(4-ethane sulfonyl-piperazin-1-yl)-phenyl]-amide]	demonstrate activity
CCC(=O)N1CCN(c2ccc(NC(=O)c3cc(=O)c4cc(F)cc(N5CCN(C)CC5)c4o3)cc2)CC1 [Example 72, 6-Fluoro-8-(4-methyl-piperazin-1-yl)-4-oxo-4H-chromene-2-carboxylic acid [4-(4-propionyl-piperazin-1-yl)-phenyl]-amide]	demonstrate activity

Molecular target: 5-HT1B and 5HT1D receptors
Experiment: not given
Conditions: guinea pig cortex membranes; "may result in a measurement of"; assay of Roberts et al.; read-out: Kd of the radioligand (saturation studies); cited from earlier work

Compound	Kd [nM]
COc1ccc(NC(=O)c2ccc(-c3ccncc3)c(C)c2)cc1N1CCN(C)CC1 [[^3H]-GR125743]	0.046 ± 0.004

Test system: not given
Experiment: not given
Conditions: not given

melting point	Compound
215 to 216 °C	CN1CCN(c2cccc3c2OC(C(=O)Nc2ccc(N4CCOCC4)cc2)CC3)CC1 (racemic) [Example 75, racemic-8-(4-Methyl-piperazin-1-yl)-chroman-2-carboxylic Acid (4-morpholin-4-yl-phenyl)-amide]
215 to 216 °C	CN1CCN(c2cccc3c2OC(C(=O)Nc2ccc(N4CCOCC4)cc2)CC3=O)CC1 (racemic) [Example 78, racemic-8-(4-methyl-piperazin-1-yl)-4-oxo-chroman-2-carboxylic Acid (4-morpholin-4-yl-phenyl)-amide]
216 °C (dec.)	CN1CCN(c2cccc3c2OC(C(=O)Nc2ccc(N4CCOCC4)cc2)CC3=O)CC1 (single isomer, unassigned) [Example 79, 8-(4-Methyl-piperazin-1-yl)-4-oxo-chroman-2-carboxylic acid (4-morpholin-4-yl-phenyl)-amide (Faster Running Isomer)]
215 °C (dec.)	CN1CCN(c2cccc3c2OC(C(=O)Nc2ccc(N4CCOCC4)cc2)CC3=O)CC1 (single isomer, unassigned) [Example 80, 8-(4-Methyl-piperazin-1-yl)-4-oxo-chroman-2-carboxylic Acid (4-morpholin-4-yl-phenyl)-amide (Slower Running Isomer)]
206 to 207 °C	CN1CCN(c2cccc3c2OC(C(=O)Nc2ccc(N4CCOCC4)cc2)CC3)CC1 (single isomer, unassigned; (+)) [Example 76, (+)-8-(4-Methyl-piperazin-1-yl)-chroman-2-carboxylic Acid (4-morpholin-4-yl-phenyl)-amide]
205.5 to 207 °C	CN1CCN(c2cccc3c2OC(C(=O)Nc2ccc(N4CCOCC4)cc2)CC3)CC1 (single isomer, unassigned; (-)) [Example 77, (−)-8-(4-Methyl-piperazin-1-yl)-chroman-2-carboxylic acid (4-morpholin-4-yl-phenyl)-amide]
217 to 218 °C (dec.)	CN1CCN(c2cccc3c(=O)cc(C(=O)Nc4ccc(N5CCOCC5)cc4)oc23)CC1 [Example 1, 8-(4-methyl-1-piperazinyl)-N-[4-(4-morpholinyl)phenyl]-4-oxo-4H-chromene-2-carboxamide]
158.1 to 158.8 °C	CN1CCN(c2cccc3c(=O)cc(-c4nc5ccc(N6CCOCC6)cc5o4)oc23)CC1 [Example 21, 8-(4-Methyl-piperazin-1-yl)-2-(6-morpholin-4-yl-benzooxazol-2-yl)-chromen-4-one]
248.4 to 249.6 °C	CN1CCN(c2cccc3c(=O)cc(C(=O)Nc4ccc(N5CCOCC5)cc4O)oc23)CC1 [Example 22, 8-(4-Methyl-piperazin-1-yl)-4-oxo-4H-chromene-2-carboxylic Acid (2-hydroxy-4-morpholin-4-yl-phenyl)-amide]
245 to 246.8 °C	CN1CCN(c2cccc3c(=O)cc(C(=O)N(C)c4ccc(N5CCOCC5)cc4)oc23)CC1 [Example 25, 8-(4-Methylpiperazin-1-yl)-4-oxo-4H-chromene-2-carboxylic Acid methyl-(4-morpholin-4-yl-phenyl)amide]
234 to 236 °C	COc1cc(N2CCN(C)CC2)c2oc(C(=O)Nc3ccc(N4CCOCC4)cc3)cc(=O)c2c1 [Example 31, 6-Methoxy-8-(4-methyl-piperazin-1-yl)-4-oxo-4H-chromene-2-carboxylic acid (4-morpholin-4-yl-phenyl)-amide]
195 to 197 °C	COc1cc(N2CCN(C)CC2)c2oc(C(=O)Nc3ccc(N4CCN(C(=O)CCO)CC4)cc3)cc(=O)c2c1 [Example 68, 6-Methoxy-8-(4-methyl-piperazin-1-yl)-4-oxo-4H-chromene-2-carboxylic acid {4-[4-(3-hydroxy-propanoyl)-piperazin-1-yl]-phenyl}-amide]
233 to 234 °C	CCS(=O)(=O)N1CCN(c2ccc(NC(=O)c3cc(=O)c4cc(F)cc(N5CCN(C)CC5)c4o3)cc2)CC1 [Example 71, 6-Fluoro-8-(4-methyl-piperazin-1-yl)-4-oxo-4H-chromene-2-carboxylic Acid [4-(4-ethane sulfonyl-piperazin-1-yl)-phenyl]-amide]
195 to 199 °C	CN1CCN(c2cc(F)cc3c(=O)cc(C(=O)Nc4ccc(N5CCN(C(=O)CCO)CC5)cc4)oc23)CC1 [Example 73, 6-Fluoro-8-(4-methyl-piperazin-1-yl)-4-oxo-4H-chromene-2-carboxylic acid {4-[4-(3-hydroxy-propanoyl)-piperazin-1-yl]-phenyl}-amide]
236 to 238 °C	CCNC(=O)N1CCN(c2ccc(NC(=O)c3cc(=O)c4cc(F)cc(N5CCN(C)CC5)c4o3)cc2)CC1 [Example 81, 4-[4-({1-[6-Fluoro-8-(4-methyl-piperazin-1-yl)-4-oxo-4H-chromen-2-yl]-methanoyl}-amino)-phenyl]-piperazine-1-carboxylic Acid Ethylamide]
